Measurements published in patent US5800838A, “Composition that inhibits or destroys at least one unicellular living organism containing fluorine F- and Lithium li+” (priority 1987, dated 1998).
In brackets after ≈: the same amount, converted by molar mass. Where two headings read alike, the source gives them in different places.

Experiments:
[1] = test system: Escherichia coli; test: Activity on wild-type hospital strains responsible for skin infections; type: cell-based; conditions: Escherichia coli, read-out: 100% inhibitory concentration
[2] = test system: Group C streptococcus; test: as above; type: cell-based; conditions: Streptococcus
[3] = test system: staphylococcus aeurus; type: cell-based; conditions: Fli 4 ppm
Method: Strains Gram+ and Gram- (wild-type hospital) having a resistant phenotype vis a vis standard firstly and secondly used antibiotherapy were experimented on activated antibiotics.
250 experiments were conducted on the following strains: Streptococcus group B, C, D, F, G, Staphylococcus aureus, Staphylococcus epidermitis, Klebsiella pneumoniae, Klebsiella spirochete, Klebsiella oxytoca, Proteus mirabilis, Serratia marcescens, Escherichia coli, Citrobacter freundii, Enterobacter cloacae, Enterobacter calcoaceticus, Salmonella spirochete, Salmonella typhimurium, Pseudomonas aeruginosa, Haemophilus influenzae, Haemophilus sphrophilus, Acinetobacter calcoaeticus. […]

[4] = test system: Pseudomonas aeruginosa; test: MIC of gentamicine, inclined agar with concentration gradient; type: cell-based; conditions: in presence of Fli at 16; RESISTANT strains
Method: (§1) The strains used were wild-type hospital strains having a resistant phenotype as regards gentamicine: pseudomonas aeruginosa, proteus mirabilis, serratia marcescens.
(§2) The phenotype of the strains was determined by diffusion in gradient on selective agar. Then, each group of strains having the same phenotype (resistant or sensible) was seeded on inclined agar having a gradient of concentration of the composition.
(§3) This methodology is explained by SZYBALSKI and BRYSON in "Selection de mutants resistant aux antibiotiques", L'antibiogramme, Vigot, p. 259-260.
(§4) The results are shown in the following table illustrating the MIC of gentamicine (aminoglycoside antibiotic).
(§5) x/y means a concentration read between x ppm and y ppm.

[5] = test system: serratia marcescens; test: as above; type: cell-based
Method: as §1, §2, §3, §4, §5

[6] = test system: proteus mirabilis; test: "chess" test, dilution in liquid medium, Trial 2; type: cell-based
Text: (§6) Substance A was gentamicine
The strain was a very resistant proteus mirabilis (wild-type hospital)

[7] = test system: Pseudomonas aeruginosa; test: "chess" test, dilution in liquid medium, Trial 4; type: cell-based
Text: as §6
The strain was pseudomonas aeruginosa (wild-type hospital resistant strain)

[8] = test system: Klebsiella pneumoniae; test: "chess" test, dilution in liquid medium, Trial 3; type: cell-based
Text: as §6
The strain was Klebsiella pneumoniae (wild-type hospital strain)

[9] = test system: pseudomonas aeruginosa and Escherichia coli; type: cell-based
Text: It is known that a strain develops a resistance against an antibiotic substance with which it is left in contact, by a phenotypical mutation procedure.
This phenomena has been studied on pseudomonas aeruginosa and Escherichia coli (wild-type hospital strains) which commonly develop resistance against aminosides. The antibiotic substance choosen was thus gentamicine which is an aminoside antibiotic.
And the growth of the resistance was studied with gentamicine alone, then with gentamicine in presence of Fli.
The trial was conducted on 12 days, and the MIC of gentamicine alone and of gentamicine in presence of Fli (4 ppm) was determined each day on transportplates in liquid medium with a serie of dilution in Mueller/Hinton agar.
The MBC (Minimal Bactericide Concentration) was also determined from the solution after determination of the MIC seeded on agar adapted to the strain. The MBC is read for a percentage of survivors less than 0,20%.

[10] = test system: salmonella spirochete; test: "Time killing curve", optical density at 600 nm; type: cell-based; conditions: Fli 32 ppm
Method: (§7) The kinetics of the bacterial growth of serratia marcescens and salmonella spirochete has been studied with the "Time killing curve" methodology, for gentamicine (64 ppm) alone, Fli (32 ppm) and gentamicine (64 ppm) in presence of Fli (32 ppm). The bacterial growth is determined by spectrophotometric reading of the optical density for a wavelength of 600 nm.
(§8) The following table illustrates the optical density (1/100) obtained: […]

[11] = test system: serratia marcescens; test: "Time killing curve", optical density at 600 nm; type: cell-based; conditions: Fli 32 ppm
Method: as §7, §8

[12] = test system: Pseudomonas aeruginosa; test: MIC on 200 wild-type strains of Pseudomonas aeruginosa (Examples 19 and 20); type: cell-based
Method: With the same methodology as above, the MIC values of benzalkonium chloride alone, in the presence of the KATHON CG (registered trademark) preservative (1 mg/l), and then in the presence of KATHON CG (registered trademark) (1 mg/l) and lithium fluoride (1 mg/l), were determined. 200 wild-type strains of Pseudomonas aeruginosa were tested.
The same trial as in Example 19 was performed, but with nonoxinol 9 as the primary active principle: 200 wild-type strains of Pseudomonas aeruginosa were also tested.

[13] = test system: Gardnerella vaginalis; test: Number of strains inhibited, bactericidal substance incorporated in culture medium (first trial); type: cell-based; conditions: NaF or LiF 1 mg/l where added
Method: In the first trial, the sample of bactericidal substance was incorporated directly in the specific culture edium of the microorganism. A concentration series of the bactericidal substance was prepared in the geometric ratio of 2, from 400 μg/ml to 1.56 μg/ml. The cell concentration used in the seeding of the Petri dishes was […]. A 24-hour incubation was performed at 37° C. and then, for each wild-type strain tested, the concentration of primary principle destroying all the microorganisms (see method of Professor F. CATALAN et al., Institut A. FOURNIER, PARIS) was determined. The trail was performed on 32 wild-type strains of Gardnerella vaginalis originating from hospital sources and with benzalkonium chloride and then nonoxinol 9 as active principles, and with sodium fluoride NaF at a concentration of 1 mg/l and then lithium fluoride LiF at a concentration of 1 mg/l as activating principles.

[14] = test system: spermatozoa; test: SANDERS-CRAMER total spermicidal test according to IPPF standards; type: cell-based
[15] = test system: Pseudomonas aeruginosa; test: Resistance of Pseudomonas aeruginosa to antiseptics in terms of water hardness and proteins; type: cell-based;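 further: R means colony growth observed and S means no significant growth; key: R: resistant (a growth of colonies was observed); S: sensitive (no significant growth was observed)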
Method: The resistance of Pseudomonas aeruginosa to various reputedly bactericidal active principles or commercial antiseptics was studied in terms of the hardness of the water and the presence or absence of proteins. The same trial was carried out on the foaming paste according to the invention (see Example 15).

[16] = test system: spermatozoa; conditions: alone; cited from earlier work
[17] = A (gentamicine) in presence of B (Fli)
[18] = 0.2 ml inoculum, contact time 10 mn, distilled water, P+
[19] = 0.2 ml inoculum, contact time 10 mn, distilled water, P-
[20] = 0.2 ml inoculum, contact time 10 mn, hard water, P+
[21] = 0.2 ml inoculum, contact time 10 mn, hard water, P-
[22] = 0.4 ml inoculum, contact time 20 mn, distilled water, P+
[23] = 0.4 ml inoculum, contact time 20 mn, distilled water, P-
[24] = 0.4 ml inoculum, contact time 20 mn, hard water, P+
[25] = 0.4 ml inoculum, contact time 20 mn, hard water, P-
[26] = 0.6 ml inoculum, contact time 30 mn, distilled water, P+
[27] = 0.6 ml inoculum, contact time 30 mn, distilled water, P-
[28] = 0.6 ml inoculum, contact time 30 mn, hard water, P+
[29] = 0.6 ml inoculum, contact time 30 mn, hard water, P-

## CC[C@H]1OC(=O)[C@H](C)[C@@H](O[C@H]2C[C@@](C)(OC)[C@@H](O)[C@H](C)O2)[C@H](C)[C@@H](O[C@@H]2O[C@H](C)C[C@H](N(C)C)[C@H]2O)[C@](C)(O)C[C@@H](C)C(=O)[C@H](C)[C@@H](O)[C@]1(C)O [ERYTHROMYCIN, erythromycin]
[1]; alone
  MIC: > 64 µg/mL
[1]; in the presence of LiF 8 ppm
  MIC: 32 µg/mL
[2]; read-out: 100% inhibitory concentration, alone
  MIC: > 0.25 µg/mL
[2]; read-out: 100% inhibitory concentration, in the presence of LiF 4 ppm
  MIC: 0.125 µg/mL
[3]
  phenotype in presence of Fli: the resistant phenotype was not changed

## gentamicine
[4]
  MIC: 64 ppm or mg/l
[5]; in presence of Fli at 8, SENSIBLE strains
  MIC: 8 ppm or mg/l
[5]; in presence of Fli at 16, RESISTANT strains
  MIC: 32 ppm or mg/l
[6]; [17]
  MIC A/B: 16 mg/L
[6]; alone, very resistant wild-type hospital strain
  MIC alone (MIC A, MIC B): 64 mg/L
[7]; [17]
  MIC A/B: 16 mg/L
[7]; alone, wild-type hospital resistant strain
  MIC alone (MIC A, MIC B): 64 mg/L
[8]; [17]
  MIC A/B: 4 mg/L
[8]; alone, wild-type hospital strain
  MIC alone (MIC A, MIC B): 16 mg/L
[9]; gentamicine alone
  day the resistance appears: the third or fourth day
[9]; gentamicine with Fli (4 ppm)
  day the resistance appears: the fourth or sixth day
[10]; 3 h 00, gentamicine 64 ppm
  optical density (1/100): 8 1/100
[10]; 6 h 00, gentamicine 64 ppm
  optical density (1/100): 7 1/100
[11]; 6 h 00, gentamicine 64 ppm
  optical density (1/100): 5 1/100
[11]; 24 h 00, gentamicine 64 ppm
  optical density (1/100): 4 1/100

## CCCCCCCCCc1ccc(OCCOCCOCCOCCOCCOCCOCCOCCOCCO)cc1 [Nonoxinol 9]
[12]; + KATHON CG (1 mg/l) + LiF (1 mg/l), strain Tic R βLac^+
  MIC: 64 mg/L
[12]; + KATHON CG (1 mg/l) + LiF (1 mg/l), strain Tic R βLac^+ OXA
  MIC: 64 mg/L
[12]; + KATHON CG (1 mg/l) + LiF (1 mg/l), strain Tic R βLac^+ PSE
  MIC: 64 mg/L
[12]; + KATHON CG (1 mg/l) + LiF (1 mg/l), strain Tic R βLac^+ TEM
  MIC: 64 mg/L
[12]; + KATHON CG (1 mg/l) + LiF (1 mg/l), strain Tic R βLac^+ cephalosporinase
  MIC: 128 mg/L
[12]; + KATHON CG (1 mg/l) + LiF (1 mg/l), strain Tic S βLac^-
  MIC: 32 mg/L
[12]; alone, strain Tic R βLac^+
  MIC: 128 mg/L (≈ 208 µM)
[12]; alone, strain Tic R βLac^+ OXA
  MIC: 128 mg/L (≈ 208 µM)
[12]; alone, strain Tic R βLac^+ PSE
  MIC: 64 mg/L (≈ 104 µM)
[12]; alone, strain Tic R βLac^+ TEM
  MIC: 128 mg/L (≈ 208 µM)
[12]; alone, strain Tic R βLac^+ cephalosporinase
  MIC: 256 mg/L (≈ 415 µM)
[12]; alone, strain Tic S βLac^-
  MIC: 64 mg/L (≈ 104 µM)
[13]; primary active principle 1.56 mg/l
  number of strains inhibited out of the 32 tested: 0
[13]; primary active principle 3.125 mg/l
  number of strains inhibited out of the 32 tested: 0
[13]; primary active principle 6.25 mg/l
  number of strains inhibited out of the 32 tested: 0
[13]; primary active principle 12.5 mg/l
  number of strains inhibited out of the 32 tested: 0
[13]; primary active principle 25 mg/l
  number of strains inhibited out of the 32 tested: 4
[13]; primary active principle 50 mg/l
  number of strains inhibited out of the 32 tested: 6
[13]; primary active principle 100 mg/l
  number of strains inhibited out of the 32 tested: 10
[13]; primary active principle 200 mg/l
  number of strains inhibited out of the 32 tested: 25
[13]; primary active principle 400 mg/l
  number of strains inhibited out of the 32 tested: 32

## [Li+] [Li^+ ions]
[14]; in words
  spermicidal effect: A spermicidal effect

## C=O [Formaldehyde]
[15]; [18]
  resistance: S
[15]; [19]
  resistance: S
[15]; [20]
  resistance: S
[15]; [21]
  resistance: S
[15]; [22]
  resistance: S
[15]; [23]
  resistance: S
[15]; [24]
  resistance: S
[15]; [25]
  resistance: S
[15]; [26]
  resistance: S
[15]; [27]
  resistance: S
[15]; [28]
  resistance: S
[15]; [29]
  resistance: S

## O=S(=O)([O-])[O-].[Zn+2] [Zinc sulphate]
[15]; [18]
  resistance: R
[15]; [19]
  resistance: R
[15]; [20]
  resistance: R
[15]; [21]
  resistance: R
[15]; [22]
  resistance: R
[15]; [23]
  resistance: R
[15]; [24]
  resistance: R
[15]; [25]
  resistance: R
[15]; [26]
  resistance: R
[15]; [27]
  resistance: R
[15]; [28]
  resistance: R
[15]; [29]
  resistance: R

## F [F^- ions]
[16]
  MIC (minimal inhibitory concentration): 5 ppm
  MIC, equivalent in %: 0.0005%

## [Cl-].[Li+] [lithium chloride]
[14]; alone
  MIC: 20 ppm
  MIC, equivalent in %: 0.002%
